Residues, ends and D or L forms follow the SMILES beside them. *: point of attachment. Cbz = O=C(OCc1ccccc1)*
Key:
WI-38 IR-SCs [1] = experiment: Apoptosis analysis (Annexin-V/PI flow cytometry); assay type: cell-based, human; conditions: 10 µM QVD 4 h prior to 2 µM EF24 for 72 h
Procedure: WI-38 NCs and SCs were treated with vehicle or 10 µM Q-VD-OPh (QVD, Cat. No. S7311, Selleckchem, Houston, TX, USA) for 4 h prior to the addition of vehicle or 2 µM EF24 for 72 h. The suspending cells were first harvested from the culture and then pooled with the adherent cells detached by 0.25% Trypsin-EDTA at 37°C for 5 min in 12 × 75 mm polystyrene round-bottom tubes (Cat. No. 352058, Falcon, Corning, NY, USA) containing complete DMEM medium. The cells were stained with Alexa Fluor 647-Annexin V (1: 50, Cat. No. 640912, BioLegend, San Diego, CA, USA) and PI (10 µg/mL, Cat. No. 421301, BioLegend, San Diego, CA, USA) at room temperature for 30 min. The stained cells were analyzed using a BD LSR II flow cytometer.

[2] = system: WI-38 IR-induced senescent cells (IR-SCs); experiment: Cell viability assay (flow cytometry, PI); assay type: cell-based, human; conditions: for EC50: Homo sapiens, WI-38 IR-SCs, 72 h, Table 1 screen of curcumin analogs; for selective toxicity against IR-SCs versus NCs (viability): WI-38, 72 h
Procedure: (§1) Human WI-38 fibroblasts (WI-38, Cat. No. CCL-75), human IMR-90 fibroblasts (IMR-90, Cat. No. CCL-186), human umbilical vein endothelial cells (HUVEC, Cat. No. CRL-1730), human renal epithelial cells (HREC, Cat. No. PCS-400-012) and human pre-adipocytes (Cat. No. PCS-210-010) were newly purchased from the American Type Culture Collection (ATCC, Manassas, VA, USA). WI-38 and IMR-90 cells were cultured in complete Dulbecco’s modified Eagle medium (DMEM, Cat. No. 12430054, Thermo Fisher Scientific, Waltham, MA, USA) supplemented with 10% heat-inactivated fetal bovine serum (FBS, Cat. No. S11150H, Atlanta Biologicals, Flowery Branch, GA, USA), 100 U/mL penicillin and 100 µg/mL streptomycin (Pen Strep, Cat. No. 15140122, Thermo Fisher Scientific, Waltham, MA, USA) in a humidified incubator at 37°C and 5% CO2. HUVEC were cultured in EGM-2 BulletKit (Cat. No. CC-3162, Lonza, Basel, Switzerland) containing basal medium supplemented with growth factors, cytokines and other supplements according to the manufacturer’s protocol. HREC were cultured in renal epithelial cell basal medium (Cat. No. PCS-400-030, ATCC, Manassas, VA, USA) supplemented with renal epithelial cell growth kit (Cat. No. PCS400040, ATCC, Manassas, VA, USA). Human pre-adipocytes were cultured in fibroblast basal medium (Cat. No. PCS-201-030, ATCC, Manassas, VA, USA) supplemented with fibroblast growth kit-low serum (Cat. No. PCS201041, ATCC, Manassas, VA, USA). EF24 (Cat. No. E8409) and HO-3867 (Cat. No. S7501) were purchased from Sigma-Aldrich (St. Louis, MO, USA) and Selleckchem (Houston, TX, USA), respectively. DIMC (Cat. No. 10009986) and 2-HBA (Cat. No. 11879) were both purchased from Cayman Chemical (Ann Arbor, MI, USA).
(§2) Three different methods were used for the induction of SCs, including replicative exhaustion, ionizing radiation and ectopic Ras expression as previously described. Briefly, low-passage WI-38 cells (< 25 passages), IMR-90 cells (< 25 passages), HUVEC (< 10 passages), HREC (< 10 passages) and pre-adipocytes (< 4 passages) were used as NCs or for the induction of senescence. To induce replicative senescence (Rep-SCs), WI-38 and IMR-90 fibroblasts, HUVEC, HREC and pre-adipocytes were subcultured until they stopped to divide and became permanently growth arrested senescence after 38 passages (WI-38), 38 passages (IMR-90), 22 passages (HUVEC), 30 passages (HREC) and 10 passages (pre-adipocytes), respectively. To induce SCs by ionizing radiation (IR-SCs) and ectopic expression of Ras (Ras-SCs), WI-38 NCs were treated as previously described.
(§3) Number of viable cells were quantified using flow cytometry as previously described with slight modifications. Specifically, NCs and SCs were incubated with vehicle (0.1% DMSO) or a test compound at indicated concentrations for 72 h. Following dissociation with 0.25% Trypsin-EDTA (Cat. No. 25200056, Thermo Fisher Scientific, Waltham, MA, USA) at 37°C for 5 min, the cells were harvested in 100 µl pre-cooled phosphate buffered saline (PBS, Cat. No. 20012027, Thermo Fisher Scientific, Waltham, MA, USA) containing 2% FBS and 100 ng/mL propidium iodide (PI, P4170, Sigma-Aldrich, St. Louis, MO, USA) and analyzed using flow cytometry (LSR II, BD Biosciences, San Jose, CA, USA). Percentage of viable cells were determined by counting the number of PI negative cells (viable cells) and then calculated as a ratio of control cells treated with vehicle. In addition, dose-response curves were generated for each compound, and the concentration for 50% of maximal effect (EC50 values) was calculated using GraphPad Prism 6.

[3] = system: WI-38 non-senescent cells (NCs); experiment: Cell viability assay (flow cytometry, PI); assay type: cell-based, human; conditions: Homo sapiens; WI-38 NCs, 72 h, Table 1 screen of curcumin analogs
Procedure: as §1, §2, §3

[4] = parameters: method as in PMID 20211249; conditions: cited from earlier work
[5] = system: Bcl-2 family proteins (Bcl-xl, Mcl-1, Bcl-2); experiment: Proteasome inhibition experiment (MG132 pretreatment, western blots); assay type: cell-based, human; conditions: 1 µM MG132 1 h prior to EF24 for 72 h
Procedure: After treatment with vehicle or EF24 at 0.5, 1 and 2 µM for 72 h, WI-38 NCs or IR-SCs were harvested in 1.5mL microcentrifuge tubes, and lysed in RIPA buffer with EDTA and EGTA (Cat. No. BP-115DG, Boston BioProducts, Ashland, MA, USA) supplemented with 1% protease inhibitor cocktail (Cat. No. P8340, Sigma-Aldrich, St. Louis, MO, USA) and 1% phosphatase inhibitor cocktail (Cat. No. P0044, Sigma-Aldrich, St. Louis, MO, USA). An equal amount of protein (30 µg/lane) from each cell extract was resolved on a precast gel (Mini-PROTEAN TGX™, Cat. No. 456-1094, Bio-Rad, Hercules, CA, USA). Proteins were blotted to a precut 0.2 µm PVDF membrane (Invitrolon™, Cat. No. LC2002, Life Technologies, Carlsbad, CA, USA) by electrophoresis. The membranes were blocked with 1X TBS-Tween (TBST, Cat. No. J77500, Affymetrix, Santan Clara, CA, USA) containing 5% non-fat dry milk (Cat. No. sc-2324, Santa Cruz Biotechnology, Dallas, TX, USA), and subsequently probed with primary antibodies at a predetermined optimal concentration overnight at 4°C. The primary antibodies including Bcl-xl (Cat. No. 2762), Mcl-1 (Cat. No. 5453), and Bcl-2 (Cat. No. 2872) and β-actin (Cat. No. 4970) were purchased from Cell Signaling Technology (Danvers, MA, USA). […] The blotting membranes were recorded using autoradiography (SRX-101, Konica, Shinjuku, Tokyo, Japan). […]

[6] = system: senescent human preadipocytes; parameters: method as in PMID 28273655; conditions: cited from earlier work
platelets = system: platelets; parameters: method as in PMID 22496272; conditions: cited from earlier work
WI-38 IR-SCs [7] = experiment: Combination treatment cell viability and coefficient of drug interaction (CDI); assay type: cell-based, human; conditions: 72 h
Procedure: as §3
The data were analyzed by analysis of variance (ANOVA) with GraphPad Prism 6 (GraphPad Software, La Jolla, CA, USA). […] To detect the synergistic senolytic activities of EF24 and ABT263, CDI was calculated as previously described.

Row | Compound | EC50 [2] | selective toxicity against IR-SCs versus NCs (viability) [2] | EC50 [3] | other results
1 | CC(C)[C@H](NC(=O)c1ccc2ccccc2n1)C(=O)N[C@@H](CC(=O)O)C(=O)COc1c(F)cccc1F [QVD] |  |  |  | effect of QVD pretreatment on EF24 induction of SCs apoptosis (WI-38 IR-SCs [1]): completely blocked
2 | O=C(C=Cc1ccccc1O)C=Cc1ccccc1O [2-HBA, Bis(2-hydroxybenzylidene)acetone] | 3.85 µM | lesser toxicities to NCs | 9.5 µM | 
3 | COC1=C2C[C@@H](C)C[C@H](OC)[C@H](O)[C@@H](C)/C=C(\C)[C@H](OC(N)=O)[C@@H](OC)/C=C\C=C(/C)C(=O)NC(=CC1=O)C2=O [geldanamycin] |  |  |  | hepatotoxicity [4]: unacceptable hepatotoxicity
4 | CC(C)C[C@@H](C=O)NC(=O)[C@H](CC(C)C)NC(=O)[C@H](CC(C)C)NC(=O)OCc1ccccc1 [MG132] (Cbz-Leu-Leu-Leu-aldehyde) |  |  |  | effect of MG132 pretreatment on downregulation of Bcl-2 family proteins by EF24 in SCs ([5]; WI-38 IR-SCs): abrogated; effect of MG132 pretreatment on expression of Bcl-2 family proteins in NCs ([5]; WI-38 NCs): no significant effect
5 | O=c1c(O)c(-c2ccc(O)c(O)c2)oc2cc(O)ccc12 [fisetin] |  |  |  | senolytic activity against senescent human preadipocytes [6]: lacks senolytic activity
6 | CC1(C)CCC(c2ccc(Cl)cc2)=C(CN2CCN(c3ccc(C(=O)NS(=O)(=O)c4ccc(N[C@H](CCN5CCOCC5)CSc5ccccc5)c(S(=O)(=O)C(F)(F)F)c4)cc3)CC2)C1 [ABT263] |  |  |  | on-target toxicity to platelets (platelets): dose-limiting thrombocytopenia; cell viability of IR-SCs, agent alone (WI-38 IR-SCs [7]): dose-dependently reduce
7 | CC1(C)C=C(CN2C/C(=C\c3ccc(F)cc3)C(=O)/C(=C/c3ccc(F)cc3)C2)C(C)(C)N1O [HO-3867] | 3.85 µM | lesser toxicities to NCs | 8.3 µM | 
8 | C=CCNC1=C2C[C@@H](C)C[C@H](OC)[C@H](O)[C@@H](C)/C=C(\C)[C@H](OC(N)=O)[C@@H](OC)/C=C\C=C(/C)C(=O)NC(=CC1=O)C2=O [17-AAG] |  |  |  | hepatotoxicity [4]: unacceptable hepatotoxicity
9 | COc1ccc(/C=C/C(=O)CC(=O)/C=C/c2ccc(OC)c(OC)c2)cc1OC [DIMC, dimethoxycurcumin] | 15.2 µM | minimal selective toxicity | 23.8 µM | 

Source: paper PMC6366974, “The curcumin analog EF24 is a novel senolytic agent” (Aging (Albany NY), 2019)
